Test results: patent US20060194837A1, “Tetrahydroisoquinoline compounds” (priority 2004, published 2006)
Read-outs that look alike come from different tables or passages of the source.

Key:
human SERT = target: T1, human SERT (Homo sapiens, UniProt P31645); experiment: Human SERT binding (3H-citalopram displacement); settings: HEK293 membranes expressing human SERT, rt 1 h
T1 construct: expressed in transfected cells; host or cells: HEK293 membranes
Method: Homogenized HEK293 (Human Embryonic Kidney) membranes expressing the human SERT were incubated with ^3H-citalopram (SERT) at rt for 1 h in 50 mM Tris, 120 mM NaCl, 5 mM KCl (pH 7.4). […] The membranes were washed and the radioactivity was counted as above.

human H3 receptor [1] = target: T2, human H3 receptor (Homo sapiens, UniProt Q9Y5N1); experiment: Cyclic AMP accumulation (β-galactosidase reporter, Schild analysis); assay type: cell-based; settings: histamine agonist, forskolin 5 μM, Schild regression of pEC50 values
T2 construct: expressed in transfected cells
Method: Sublines of SK-N-MC cells were created that expressed a reporter construct and the human H3 receptor. The reporter gene (β-galactosidase) is under the control of multiple cyclic AMP responsive elements. In 96-well plates, histamine was added directly to the cell media followed 5 min later by an addition of forskolin (5 μM final concentration). When appropriate, antagonists were added 10 min prior to agonist addition. After a 6-h incubation at 37° C., the media was aspirated and the cells washed with 200 μL of phosphate-buffered saline followed by a second aspiration. Cells were lysed with 25 μL 0.1× assay buffer (10 mM Na-phosphate, pH 8, 0.2 mM MgSO4, 0.01 mM MnCl2) and incubated at rt for 10 min. […] Color was developed using 25 μL of 1 mg/mL substrate solution (chlorophenolred β-D galactopyranoside; Roche Molecular Biochemicals, Indianapolis, In.).

human H3 receptor [2] = target: T2, human H3 receptor; experiment: H3 receptor binding (N-[3H]-α-methylhistamine displacement); settings: membranes of SK-N-MC cells expressing cloned human H3 receptor, 0.8 nM N-[3H]-α-methylhistamine, 60 min at 25° C.
Rat SERT = target: T3, Rat SERT (Rattus norvegicus, UniProt P31652); experiment: Rat brain SERT binding ([3H]-citalopram displacement); settings: rat brain membranes without cerebellum, 0.6 nM [3H]-citalopram, 60 min at 25° C.
T3 construct: A rat brain without cerebellum (Zivic Laboratories, Inc.—Pittsburgh, Pa.) was homogenized; tissue Zivic Laboratories, Inc; host or cells: rat brain without cerebellum, membranes
Method: The supernatant was removed and re-centrifuged at 15,000 rpm for 30 min. […] Membranes were incubated with 0.6 nM [^3H]-Citalopram plus/minus test compounds for 60 min at 25° C. and harvested by rapid filtration over GF/C glass fiber filters (pretreated with 0.3% polyethylenimine) followed by four washes with ice-cold buffer.

[3] = SK-N-MC cells expressing human H3 receptor and CRE-β-galactosidase reporter, read-out: pA2 (converted)
[4] = pA2, SK-N-MC cells expressing human H3 receptor and CRE-β-galactosidase reporter

T1 sequence (P31645 whole entry): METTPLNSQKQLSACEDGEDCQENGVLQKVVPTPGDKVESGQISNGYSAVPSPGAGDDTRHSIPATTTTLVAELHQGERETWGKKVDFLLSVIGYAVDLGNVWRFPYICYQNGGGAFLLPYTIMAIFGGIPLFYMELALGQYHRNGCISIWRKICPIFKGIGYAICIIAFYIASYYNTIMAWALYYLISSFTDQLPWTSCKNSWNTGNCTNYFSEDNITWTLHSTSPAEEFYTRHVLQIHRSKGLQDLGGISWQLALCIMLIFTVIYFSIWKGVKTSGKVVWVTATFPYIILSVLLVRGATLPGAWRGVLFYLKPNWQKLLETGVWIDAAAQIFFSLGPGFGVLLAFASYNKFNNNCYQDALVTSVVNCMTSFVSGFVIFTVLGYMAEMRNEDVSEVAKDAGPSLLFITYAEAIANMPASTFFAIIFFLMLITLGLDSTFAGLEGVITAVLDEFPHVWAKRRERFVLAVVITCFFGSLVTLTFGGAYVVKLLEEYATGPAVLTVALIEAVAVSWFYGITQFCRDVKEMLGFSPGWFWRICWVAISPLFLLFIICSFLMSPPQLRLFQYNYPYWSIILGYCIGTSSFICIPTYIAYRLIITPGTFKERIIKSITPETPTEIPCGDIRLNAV
T3 sequence (P31652 whole entry): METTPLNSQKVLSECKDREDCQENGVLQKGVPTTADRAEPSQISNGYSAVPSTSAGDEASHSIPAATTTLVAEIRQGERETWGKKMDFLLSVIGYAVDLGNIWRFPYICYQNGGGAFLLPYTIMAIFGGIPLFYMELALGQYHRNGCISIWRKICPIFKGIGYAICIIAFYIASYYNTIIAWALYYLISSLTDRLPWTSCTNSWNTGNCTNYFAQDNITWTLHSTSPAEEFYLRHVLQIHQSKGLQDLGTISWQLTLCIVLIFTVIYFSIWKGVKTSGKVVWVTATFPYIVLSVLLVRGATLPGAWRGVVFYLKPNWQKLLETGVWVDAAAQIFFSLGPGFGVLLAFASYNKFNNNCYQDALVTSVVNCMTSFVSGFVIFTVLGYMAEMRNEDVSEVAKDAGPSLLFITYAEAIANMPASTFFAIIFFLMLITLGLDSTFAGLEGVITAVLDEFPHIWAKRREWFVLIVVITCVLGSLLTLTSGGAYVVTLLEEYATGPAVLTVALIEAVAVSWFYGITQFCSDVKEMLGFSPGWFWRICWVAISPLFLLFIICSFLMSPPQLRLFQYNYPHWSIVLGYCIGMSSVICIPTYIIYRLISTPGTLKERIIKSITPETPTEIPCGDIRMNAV
T2 sequence (Q9Y5N1 whole entry): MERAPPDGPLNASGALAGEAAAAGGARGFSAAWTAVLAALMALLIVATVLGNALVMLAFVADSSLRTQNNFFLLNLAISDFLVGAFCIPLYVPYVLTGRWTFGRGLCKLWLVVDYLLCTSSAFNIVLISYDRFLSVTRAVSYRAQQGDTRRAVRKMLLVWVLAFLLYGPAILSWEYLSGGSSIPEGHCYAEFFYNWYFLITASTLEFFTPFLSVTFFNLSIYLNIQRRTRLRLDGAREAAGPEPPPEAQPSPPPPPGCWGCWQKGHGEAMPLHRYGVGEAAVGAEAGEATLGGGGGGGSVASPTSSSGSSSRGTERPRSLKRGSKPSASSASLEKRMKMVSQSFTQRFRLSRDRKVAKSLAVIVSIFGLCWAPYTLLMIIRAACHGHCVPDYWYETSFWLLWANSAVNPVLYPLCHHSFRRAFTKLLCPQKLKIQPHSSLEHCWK

Row | Ki (human SERT) [nM] | Kb (human H3 receptor [1]; [3]) [nM] | Ki (human H3 receptor [2]) [nM] | Ki (Rat SERT; read-out: Rat SERT Ki) [nM] | Structure (SMILES) | Kb (human H3 receptor [1]; [4]) [nM] | Ki (Rat SERT; Rat SERT Ki (nM)) [nM]
1 | 7 | 1.26 | 2 | 9 | COc1cccc(C2CN(C)Cc3cc(OCCCN4CCC(F)CC4)ccc32)c1 (single isomer, unassigned) [Example 45A, 7-[3-(4-Fluoro-piperidin-1-yl)-propoxy]-4-(3-methoxyphenyl)-2-methyl-1,2,3,4-tetrahydro-isoquinoline] |  | 
2 | 6 | 0.794 | 3 | 5 | COc1cccc(C2CN(C)Cc3cc(OCCCN4CCC(F)CC4)ccc32)c1 (single isomer, unassigned) [Example 45B, 7-[3-(4-Fluoro-piperidin-1-yl)-propoxy]-4-(3-methoxyphenyl)-2-methyl-1,2,3,4-tetrahydro-isoquinoline] |  | 
3 | 8 | 5.01 | 4 | 6 | COc1ccc(C2CN(C)Cc3cc(OCCCN4CCC(F)(F)CC4)ccc32)cc1 (stereo not shown) [Example 8, 7-[3-(4,4-Difluoro-piperidin-1-yl)-propoxy]-4-(4-methoxy-phenyl)-2-methyl-1,2,3,4-tetrahydro-isoquinoline] |  | 
4 | 6 | 2.51 | 3 | 5 | COc1ccc(C2CN(C)Cc3cc(OCCCN4CCOCC4)ccc32)cc1 (stereo not shown) [Example 9, 4-(4-Methoxy-phenyl)-2-methyl-7-(3-morpholin-4-yl-propoxy)-1,2,3,4-tetrahydro-isoquinoline] |  | 
5 | 5 | 0.398 | 0.6 | 2 | COc1ccc(C2CN(C)Cc3cc(OCCCN4[C@H](C)CC[C@H]4C)ccc32)cc1 (stereo partly drawn) [Example 11, 7-[3-((2R,5R)-trans-Dimethyl-pyrrolidin-1-yl)-propoxy]-4-(4-methoxy-phenyl)-2-methyl-1,2,3,4-tetrahydro-isoquinoline] |  | 
6 | 4 | 12.6 | 9 | 2 | COc1ccc(C2CN(C)Cc3cc(OCCCN4CCC(O)CC4)ccc32)cc1 (stereo not shown) [Example 21, 1-{3-[4-(4-Methoxy-phenyl)-2-methyl-1,2,3,4-tetrahydro-isoquinolin-7-yloxy]-propyl}-piperidin-4-ol] |  | 
7 | 53 | 0.1 | 0.9 | 22 | CN1Cc2cc(OCCCN3CCCCC3)ccc2C(c2ccsc2)C1 (stereo not shown) [Example 57, 2-Methyl-7-(3-piperidin-1-yl-propoxy)-4-thiophen-3-yl-1,2,3,4-tetrahydro-isoquinoline] |  | 
8 | 160 | 0.126 | 1 | 48 | CN1Cc2cc(OCCCN3CCCCC3)ccc2C(c2cccnc2)C1 (stereo not shown) [Example 59, 2-Methyl-7-(3-piperidin-1-yl-propoxy)-4-pyridin-3-yl-1,2,3,4-tetrahydro-isoquinoline] |  | 
9 | 7 | 2.51 | 2 | 14 | CN1Cc2cc(OCCCN3CCCCC3)ccc2C(c2ccc(C(F)(F)F)cc2)C1 (stereo not shown) [Example 60] |  | 
10 | 31 | 0.251 | 1 | 16 | COc1ccc(C2CN(CCO)Cc3cc(OCCCN4CCCCC4)ccc32)cc1 (stereo not shown) [Example 71, 2-[4-(4-Methoxy-phenyl)-7-(3-piperidin-1-yl-propoxy)-3,4-dihydro-1H-isoquinolin-2-yl]-ethanol] |  | 
11 | 12 | 2 | 3 | 12 | CCN1Cc2cc(OCCCN3CCC(F)CC3)ccc2C(c2ccc(OC)cc2)C1 (stereo not shown) [Example 146, 2-Ethyl-7-[3-(4-fluoro-piperidin-1-yl)-propoxy]-4-(4-methoxy-phenyl)-1,2,3,4-tetrahydro-isoquinoline] |  | 
12 | 12 | 6.31 | 17 | 3 | CN1Cc2cc(OCCCN3CCOCC3)ccc2C(c2ccc(OC(F)F)cc2)C1 (stereo not shown) [Example 214, 4-(4-Difluoromethoxy-phenyl)-2-methyl-7-(3-morpholin-4-yl-propoxy)-1,2,3,4-tetrahydro-isoquinoline] |  | 
13 | 158 | 2 | 5 | 47 | CN1Cc2cc(CCCCN3CCCCC3)ccc2C(c2cccnc2)C1 (stereo not shown) [Example 273, 2-Methyl-7-(4-piperidin-1-yl-butyl)-4-pyridin-3-yl-1,2,3,4-tetrahydro-isoquinoline] |  | 
14 | 4 | 1.26 | 3 | 5 | COc1ccc(C2CN(C)Cc3cc(C#CCCN4CCCCC4)ccc32)cc1 (stereo not shown) [Example 275, 4-(4-Methoxy-phenyl)-2-methyl-7-(4-piperidin-1-yl-but-1-ynyl)-1,2,3,4-tetrahydro-isoquinoline] |  | 

More lines, now with the values behind:

Row | Structure (SMILES) | Ki (human SERT) [nM] | Kb (human H3 receptor [1]; [3]) [nM] | Ki (human H3 receptor [2]) [nM] | Ki (Rat SERT; read-out: Rat SERT Ki) [nM] | Kb (human H3 receptor [1]; [4]) [nM] | Ki (Rat SERT; Rat SERT Ki (nM)) [nM]
15 | COc1ccc(C2CN(C)Cc3cc(OC[C@H]4CN(C(C)C)CCO4)ccc32)cc1 (single isomer, unassigned) [Example 256B, 7-(4-Isopropyl-morpholin-2R-ylmethoxy)-4-(4-methoxy-phenyl)-2-methyl-1,2,3,4-tetrahydro-isoquinoline] | 4 | 3.98 | 7 | 8 |  | 
16 | COc1ccc(C2CN(C)Cc3cc(OCCCN4CC[C@@H](N(C)C)C4)ccc32)cc1 (stereo in doubt) [Example 10, (1-{3-[4-(4-Methoxy-phenyl)-2-methyl-1,2,3,4-tetrahydro-isoquinolin-7-yloxy]-propyl}-pyrrolidin-3-yl)-dimethyl-amine] | 5 | 3.98 | 1 | 4 |  | 
17 | CCN(CC)CCCOc1ccc2c(c1)CN(C)CC2c1ccc(OC)cc1 (stereo not shown) [Example 3, Diethyl-{3-[4-(4-methoxy-phenyl)-2-methyl-1,2,3,4-tetrahydro-isoquinolin-7-yloxy]-propyl}-amine] | 4 |  | 0.7 | 3 | 0.398 | 
18 | CN1Cc2cc(OCCCN3CCC(F)CC3)ccc2C(c2ccc(OC(F)F)cc2)C1 (stereo not shown) [Example 50, 4-(4-Difluoromethoxy-phenyl)-7-[3-(4-fluoro-piperidin-1-yl)-propoxy]-2-methyl-1,2,3,4-tetrahydro-isoquinoline] | 3 |  | 8 | 3 | 3.98 | 
19 | COc1ccc(C2CN(CCF)Cc3cc(OCCCN4CCCCC4)ccc32)cc1 (stereo not shown) [Example 72, 2-(2-Fluoro-ethyl)-4-(4-methoxy-phenyl)-7-(3-piperidin-1-yl-propoxy)-1,2,3,4-tetrahydro-isoquinoline] | 29 |  | 1 | 15 | 0.794 | 
20 | CN1Cc2cc(OCCCN3CCCCC3)ccc2C(c2ccc(Cl)c(Cl)c2)C1 (stereo not shown) [Example 76, 4-(3,4-Dichloro-phenyl)-2-methyl-7-(3-piperidin-1-yl-propoxy)-1,2,3,4-tetrahydro-isoquinoline] | 9 |  | 5 |  | 3.98 | 11
21 | CN1Cc2cc(OCCCN3CCOCC3)ccc2C(c2ccc(Cl)c(Cl)c2)C1 (stereo not shown) [Example 77, 4-(3,4-Dichloro-phenyl)-2-methyl-7-(3-morpholin-4-yl-propoxy)-1,2,3,4-tetrahydro-isoquinoline] | 28 |  | 3 | 27 | 20 | 
22 | COc1ccc(C2CN(C)Cc3cc(OCC4CCN(C(C)C)CC4)ccc32)cc1 (stereo not shown) [Example 83, 7-(1-Isopropyl-piperidin-4-ylmethoxy)-4-(4-methoxy-phenyl)-2-methyl-1,2,3,4-tetrahydro-isoquinoline] | 5 | 1.26 | 3 | 6 |  | 
23 | CSc1ccc(C2CN(C)Cc3cc(OCC4CN(C(C)C)C4)ccc32)cc1 (stereo not shown) [Example 236, 7-(1-Isopropyl-azetidin-3-ylmethoxy)-2-methyl-4-(4-methylsulfanyl-phenyl)-1,2,3,4-tetrahydro-isoquinoline] | 9 | 7.94 | 10 | 6 |  | 
24 | C(#Cc1ccc2c(c1)CNCC2c1cccnc1)CCN1CCCCC1 (stereo not shown) [Example 271, 7-(4-Piperidin-1-yl-but-1-ynyl)-4-pyridin-3-yl-1,2,3,4-tetrahydro-isoquinoline] | 3000 | 0.251 | 0.7 | 413 |  | 
25 | c1cncc(C2CNCc3cc(CCCCN4CCCCC4)ccc32)c1 (stereo not shown) [Example 272, 7-(4-Piperidin-1-yl-butyl)-4-pyridin-3-yl-1,2,3,4-tetrahydro-isoquinoline] | 3000 | 3.16 | 3 | 540 |  | 
